Test results as given in patent EP4707284A1, “HETEROCYCLIC COMPOUND AND USE THEREOF” (Otsuka Pharmaceutical Co., Ltd., priority 2023, dated 2024).

How the values were obtained:
[1] = format: physicochemical; settings: Tris-hydrochloric acid buffer (pH 7.5) 50 mmol/L, magnesium chloride 5 mmol/L, evaluation compound 1 µmol/L, 37°C, 60 minutes, average of duplicate
Method in brief: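 Stability in buffer assessed as brexpiprazole formation: duplicate reactions at 37°C, started by adding compound to pre-warmed solution, quenched at 0 or 60 min with internal-standard-containing acetonitrile/isopropanol (4:1). Calibration curves covered 0.01, 0.1 and 1 µmol/L of compound and brexpiprazole.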

in vitro = format: cell-based, human; settings: human; 300 µmol/L, about 24 hours, PMA-differentiated HL-60 cells, LDH activity; no-treatment group 0%, cell lysis buffer-treated group 100%; read-out: cytotoxicity (%) Evaluation compound results
Experimental: (§1) An HL-60 cell line (human acute promyelocytic leukemia cells) was successively cultured in RPMI 1640 containing 20% fetal bovine serum (FBS) at 37°C in 95% atmosphere/5% CO2. Before evaluation, the cells were pre-cultured for about 72 hours in the presence of 10 nM phorbol 12-myristate 13-acetate (PMA) to induce macrophage-like differentiation.
(§2) Evaluation compounds were dissolved in DMSO to obtain 30 mmol/L solutions (or suspensions). Each DMSO solution was diluted 100-fold with RPMI 1640 containing 2% FBS (final concentration of the compound: 300 µmol/L) to obtain a treatment solution. The culture supernatant of the differentiated HL-60 cells was removed, and each treatment solution was added and cultured for about 24 hours, followed by cytotoxicity evaluation.
(§3) The activity of lactate dehydrogenase (LDH) was measured in the treatment solutions exposed to the cells for about 24 hours by using a commercial kit (Cytotoxicity LDH Assay Kit-WST, Dojindo Laboratories) and a plate reader (Tecan Infinite M1000). The obtained measurement values were used to calculate cytotoxicity (%) as comparison values for each evaluation compound-treated group, with the no-treatment group taken as 0% and the cell lysis buffer-treated group taken as 100%. The test was conducted in triplicate in three wells each, and the average values were used as adopted values.

HL-60 cells = assay: in vitro; format: cell-based, human; settings: 300 µmol/L, about 24 hours; for cytotoxicity (%) Evaluation compound results: PMA-differentiated HL-60 cells, LDH activity, no-treatment group 0%, cell lysis buffer-treated group 100%
Experimental: as §1, §2, §3

[2] = Dog irritation study (subcutaneous administration); format: in vivo, dogs; settings: stated in the cytotoxicity method, no details
Experimental: Male beagle dogs were purchased at the age of 5-7 months from Kitayama Labes Co., Ltd. and used in the experiment after acclimatization. The breeding environment was as follows: feeding: 250 g of solid feed once a day, water intake: unlimited, number of animals per cage: 1, temperature: 21-25°C, humidity: 50-70%, lighting time: 7:00-19:00. The test formulation was subcutaneously administered to dogs anesthetized with 25 mg/kg thiopental sodium using a plastic syringe at a dose of 10 mg/kg per formulation, changing the position on the back. […] The collected tissues were fixed in 10% neutral buffered formalin, and hematoxylin and eosin-stained specimens were prepared for histopathological examination.

SMILES | Concentration of brexpiprazole formed [1] | Concentration of evaluation compound decreased [1] | cytotoxicity at 24 h, 300 µM (in vitro) | cytotoxicity (%) Evaluation compound results (HL-60 cells) | cytotoxicity compared with control compounds (in words) (HL-60 cells) | irritation when subcutaneously administered to dogs [2]
CC(C)(C)OP(=O)([O-])OC[N+]1(CCCCOc2ccc3ccc(=O)[nH]c3c2)CCN(c2cccc3sccc23)CC1 [EX 4, (4-(benzo[b]thiophen-4-yl)-1-(4-((2-oxo-1,2-dihydroquinolin-7-yl)oxy)butyl)piperazin-1-ium-1-yl)methyl tert-butyl phosphate] | 0 nM | 20 nM | -5% | – | – | –
CC(C)OP(=O)([O-])OC[N+]1(CCCCOc2ccc3ccc(=O)[nH]c3c2)CCN(c2cccc3sccc23)CC1 [EX 5, (4-(benzo[b]thiophen-4-yl)-1-(4-((2-oxo-1,2-dihydroquinolin-7-yl)oxy)butyl)piperazin-1-ium-1-yl)methyl isopropyl phosphate] | 0 nM | 70 nM | -4% | – | – | –
O=c1ccc2ccc(OCCCC[N+]3(COP(=O)([O-])OCCCO)CCN(c4cccc5sccc45)CC3)cc2[nH]1 [EX 6, (4-(benzo[b]thiophen-4-yl)-1-(4-((2-oxo-1,2-dihydroquinolin-7-yl)oxy)butyl)piperazin-1-ium-1-yl)methyl (3-hydroxypropyl) phosphate] | 0 nM | -110 nM | 16% | – | – | –
COCCOCCOP(=O)([O-])OC[N+]1(CCCCOc2ccc3ccc(=O)[nH]c3c2)CCN(c2cccc3sccc23)CC1 [EX 7, (4-(benzo[b]thiophen-4-yl)-1-(4-((2-oxo-1,2-dihydroquinolin-7-yl)oxy)butyl)piperazin-1-ium-1-yl)methyl (2-(2-methoxyethoxy)ethyl)phosphate] | 0 nM | -60 nM | -4% | – | – | –
CCOC(=O)COP(=O)([O-])OC[N+]1(CCCCOc2ccc3ccc(=O)[nH]c3c2)CCN(c2cccc3sccc23)CC1 [EX 8, (4-(benzo[b]thiophen-4-yl)-1-(4-((2-oxo-1,2-dihydroquinolin-7-yl)oxy)butyl)piperazin-1-ium-1-yl)methyl (2-ethoxy-2-oxoethyl)phosphate] | 10 nM | 70 nM | 15% | – | – | –
CC(C)OCCOP(=O)([O-])OC[N+]1(CCCCOc2ccc3ccc(=O)[nH]c3c2)CCN(c2cccc3sccc23)CC1 [EX 13, (4-(benzo[b]thiophen-4-yl)-1-(4-((2-oxo-1,2-dihydroquinolin-7-yl)oxy)butyl)piperazin-1-ium-1-yl)methyl (2-isopropoxyethyl)phosphate] | 0 nM | 30 nM | -5% | – | – | –
O=c1ccc2ccc(OCCCC[N+]3(COP(=O)([O-])OCCN4CCOCC4)CCN(c4cccc5sccc45)CC3)cc2[nH]1 [EX 14, (4-(benzo[b]thiophen-4-yl)-1-(4-((2-oxo-1,2-dihydroquinolin-7-yl)oxy)butyl)piperazin-1-ium-1-yl)methyl (2-morpholinoethyl)phosphate] | 0 nM | 80 nM | -10% | – | – | –
CC(=O)OCCCOP(=O)([O-])OC[N+]1(CCCCOc2ccc3ccc(=O)[nH]c3c2)CCN(c2cccc3sccc23)CC1 [EX 15, 3-acetoxypropyl ((4-(benzo[b]thiophen-4-yl)-1-(4-((2-oxo-1,2-dihydroquinolin-7-yl)oxy)butyl)piperazin-1-ium-1-yl)methyl)phosphate] | 0 nM | 0 nM | 3% | – | – | –
CCCCCC(=O)OCOP(=O)([O-])OC[N+]1(CCCCOc2ccc3ccc(=O)[nH]c3c2)CCN(c2cccc3sccc23)CC1 [EX 16, (4-(benzo[b]thiophen-4-yl)-1-(4-((2-oxo-1,2-dihydroquinolin-7-yl)oxy)butyl)piperazin-1-ium-1-yl)methyl ((hexanoyloxy)methyl)phosphate] | 0 nM | 10 nM | 17% | – | – | –
CCCCCCCCCC(=O)OCOP(=O)([O-])OC[N+]1(CCCCOc2ccc3ccc(=O)[nH]c3c2)CCN(c2cccc3sccc23)CC1 [EX 17, (4-(benzo[b]thiophen-4-yl)-1-(4-((2-oxo-1,2-dihydroquinolin-7-yl)oxy)butyl)piperazin-1-ium-1-yl)methyl ((decanoyloxy)methyl)phosphate] | 0 nM | 70 nM | 8% | – | – | –
O=C(OCOP(=O)([O-])OC[N+]1(CCCCOc2ccc3ccc(=O)[nH]c3c2)CCN(c2cccc3sccc23)CC1)C1CCCCC1 [EX 18, (4-(benzo[b]thiophen-4-yl)-1-(4-((2-oxo-1,2-dihydroquinolin-7-yl)oxy)butyl)piperazin-1-ium-1-yl)methyl (((cyclohexanecarbonyl)oxy)methyl)phosphate] | 0 nM | -10 nM | 8% | – | – | –
O=C(OCOP(=O)([O-])OC[N+]1(CCCCOc2ccc3ccc(=O)[nH]c3c2)CCN(c2cccc3sccc23)CC1)OC1CCCCC1 [EX 19, (4-(benzo[b]thiophen-4-yl)-1-(4-((2-oxo-1,2-dihydroquinolin-7-yl)oxy)butyl)piperazin-1-ium-1-yl)methyl ((((cyclohexyloxy)carbonyl)oxy)methyl)phosphate] | 0 nM | -70 nM | 16% | – | – | –
CC(C)(C)[Si](C)(C)OCCCCOP(=O)([O-])OC[N+]1(CCCCOc2ccc3ccc(=O)[nH]c3c2)CCN(c2cccc3sccc23)CC1 [EX 60] | 0 nM | 90 nM | – | 16% | – | –
CCOC(=O)CCCC(=O)OCOP(=O)([O-])OC[N+]1(CCCCOc2ccc3ccc(=O)[nH]c3c2)CCN(c2cccc3sccc23)CC1 [EX 68] | 0 nM | 90 nM | -6% | – | – | –
COCCn1nc(C(=O)OCOP(=O)([O-])OC[N+]2(CCCCOc3ccc4ccc(=O)[nH]c4c3)CCN(c3cccc4sccc34)CC2)c2ccccc21 [EX 82] | 0 nM | 20 nM | – | -2% | – | –
CCCCOCCOCCOP(=O)([O-])OC[N+]1(CCCCOc2ccc3ccc(=O)[nH]c3c2)CCN(c2cccc3sccc23)CC1 [EX 99] | 0 nM | 0 nM | -6% | – | – | –
COCCN(CCOC)P(=O)([O-])OC[N+]1(CCCCOc2ccc3ccc(=O)[nH]c3c2)CCN(c2cccc3sccc23)CC1 [EX 153] | 0 nM | -10 nM | – | -7% | – | –
O=C(OC[N+]1(CCCCOc2ccc3ccc(=O)[nH]c3c2)CCN(c2cccc3sccc23)CC1)N1CCCCC1.[I-] [REX 4, 4-(benzo[b]thiophen-4-yl)-1-(4-((2-oxo-1,2-dihydroquinolin-7-yl)oxy)butyl)-1-(((piperidine-1-carbonyl)oxy)methyl)piperazin-1-ium iodide, reference compound] | – | – | – | 83% | stronger cytotoxicity than that of the Reference Example 3 compound | –
CCCCCC(=O)OCn1c(=O)ccc2ccc(OCCCCN3CCN(c4cccc5sccc45)CC3)cc21 [Reference Example 3 compound, (7-(4-(4-(benzo[b]thiophen-4-yl)piperazin-1-yl)butoxy)-2-oxoquinolin-1(2H)-yl)methyl hexanoate] | – | – | – | – | – | showed irritation
